What was measured:
[1] = molecular target: T1, HSP90α (Homo sapiens, UniProt P07900); assay: HSP90 inhibition assay, FITC-geldanamycin competition fluorescence polarization, HSP90α; type: binding; conditions: FITC-GM competition
T1 construct: Reaction Biology Corporation (ran the assay as a service)

[2] = tested on: CD8 cells and granzyme B in mouse tumor area; assay: IHC of CD8 cell infiltration and granzyme B in CT26 tumor area; type: in vivo; conditions: CT26 tumors, day 25, IHC, 10, 25, 50 mg/kg
Description: The tumors were removed from mice on day 25 and embedded in paraffin and sectioned for immunohistochemical staining. […] Bar, SD.
The effects of the HSP90/HDAC6 dual inhibitors as described in Synthesis Examples (such as Compounds 63, 64, and 66 to 76) on several factors were evaluated. IHC-Paraffin: Tumor tissues were excised from the mice, fixed in 4% formaldehyde solution in PBS, and embedded in paraffin. Sections of 4-5 μm were cut and placed in an oven at 60° C. for overnight. After deparaffinizing and rehydrating the section, the antigen retrieval was performed with citrate buffer (10 mM citrate acid, pH 6) or Tris buffer (10 mM Tris, 1 mM EDTA, pH9) by autoclave for 30 min at 121 C. The sections were blocked with 10% goat serum and then incubated with primary antibodies against the following antigens: IDO (Santa Cruz Biotechnology Dallas, TX, USA), CD8 (Novus, Littleton, CO, USA) and granzyme B (Abcam, Cambridge, UK) at 4 C for overnight. […] Images of the tumor tissues sections were captured by Mirax Scan (CARL ZEISS, Germany) or TissueFAXS (Vienna, Austria) and analyzed by HistoQuest software (Vienna, Austria).
It is known that TME blocks the infiltration of functional immune cells into the tumor area. The effects of Compound 75 on CD8 cell infiltration in the tumor area were evaluated. […] Therefore, the ability of CD8+ T cells to secrete granzyme B was evaluated.

[3] = molecular target: T2, HSP90β (Homo sapiens, UniProt P08238); assay: HSP90 inhibition assay, FITC-geldanamycin competition fluorescence polarization, HSP90β; type: binding; conditions: FITC-GM competition
T2 construct: Reaction Biology Corporation (ran the assay as a service)
T2 sequence (P08238 whole entry): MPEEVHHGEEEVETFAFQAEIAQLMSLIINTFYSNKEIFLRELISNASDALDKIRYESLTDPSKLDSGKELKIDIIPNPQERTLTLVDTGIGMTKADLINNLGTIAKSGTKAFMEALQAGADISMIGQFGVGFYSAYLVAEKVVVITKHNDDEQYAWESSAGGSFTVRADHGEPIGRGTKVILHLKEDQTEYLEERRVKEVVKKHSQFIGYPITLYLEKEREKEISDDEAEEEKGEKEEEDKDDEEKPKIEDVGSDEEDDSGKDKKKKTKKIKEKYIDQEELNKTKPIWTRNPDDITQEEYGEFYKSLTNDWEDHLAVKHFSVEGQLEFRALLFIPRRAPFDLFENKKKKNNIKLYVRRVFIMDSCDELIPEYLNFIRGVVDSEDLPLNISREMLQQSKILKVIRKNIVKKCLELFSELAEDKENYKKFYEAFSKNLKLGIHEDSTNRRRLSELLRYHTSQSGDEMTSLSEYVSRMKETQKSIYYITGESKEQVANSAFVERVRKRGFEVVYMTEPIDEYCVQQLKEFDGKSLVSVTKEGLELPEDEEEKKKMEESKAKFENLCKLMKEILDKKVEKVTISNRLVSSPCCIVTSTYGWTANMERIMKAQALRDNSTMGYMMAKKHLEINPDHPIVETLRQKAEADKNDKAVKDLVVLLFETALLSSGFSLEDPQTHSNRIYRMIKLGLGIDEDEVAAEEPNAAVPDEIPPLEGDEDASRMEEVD

[4] = tested on: human colon normal epithelial cells (CCD841CON); assay: MTT cytotoxicity to normal cells, CCD841CON; type: cell-based; conditions: CCD-841CoN, 48 hours, read-out: IC50, proliferation of CCD841CON
Description: FIGS. 3A and 3B show the effects of Compound 75 on cytotoxicity to normal cell lines. Cells were treated with DMSO or different concentrations of Compound 75 for 48 hours and cell viability was assessed by MTT assay. […] Data are expressed as mean t S.D. N values greater than 3. * P<0.05; ** P<0.01; *** P<0.001, compared with the control group.
The effects on cell viability of the HSP90/HDAC6 dual inhibitors as described in Synthesis Examples (such as Compounds 63, 64, and 66 to 76) were evaluated. Cells were seeded in 96-well plates (5000 cells/well). The next day, the serially diluted drugs were added into the wells and incubated at 37° C. for 48 h. Cell viability was measured by the MTT assay and is expressed as percentages of surviving drug-treated cells relative to untreated control cells. The IC50 was calculated by non-linear regression analysis.
The cytotoxicity to normal cells of Compound 75 was evaluated.

[5] = tested on: colorectal cancer tumors (CT26); assay: CT26 syngeneic tumor growth in immunocompetent Balb/c mice; type: in vivo, mouse; conditions: CT26 in Balb/c, 10, 25, 50 mg/kg i.v. every two days
Description: Tumor size in each mouse (FIG. 5B) and mean tumor size (FIG. 5C) were measured periodically. Bar, SEM. […] N values greater than 3.
The effects of the HSP90/HDAC6 dual inhibitors as described in Synthesis Examples (such as Compounds 63, 64, and 66 to 76) on syngeneic tumor treatment were evaluated. Female BALB/c mice were subcutaneously implanted with mouse colorectal cancer CT26 cells ([…] cells/mouse) in the left unilateral back. After tumor size reached 50 mm^3, mice were i.v. injected with […], STA9090 (Ganetespib), or anti-PD-1 antibody (clone RMP1-14) (4-8 mice per group). The progression of tumor sizes and body weights was measured twice per week. Tumor volume formula: V (mm^3)=(length×width×height)/2. Mice were sacrificed on day 25, and tumors and blood were collected for the analysis of immune cell populations.
After CT26 was injected subcutaneously into the back of immunocompetent mice (Balb/c), the tumors grew to 50 mm^3. Compound 75 was administered intravenously at 10 mg/kg, 25 mg/kg and 50 mg/kg every two days (FIG. 5A).

Structure (SMILES): COc1ccc(N(Cc2ccc(C(=O)NO)cc2)C(=O)c2cc(C(C)C)c(O)cc2O)cc1 [Compound 75, 2,4-Dihydroxy-N-(4-hydroxycarbamoyl-benzyl)-5-isopropyl-N-(4-methoxy-phenyl)-benzamide]
- IC50 [1]: 52 nM
- CD8 immune cell infiltration in the mouse tumor area [2]: significantly increased
- granzyme B secretion [2]: concentration-dependent increase
- IC50 [3]: 66.9 nM
- IC50 [4]: > 20000 nM
- growth of colorectal cancer tumors in mice [5]: inhibit the growth of colorectal cancer tumors in mice

— patent publication US20240398823A1, “DUAL INHIBITOR OF HISTONE DEACETYLASE 6 AND HEAT SHOCK PROTEIN 90” (TAIPEI MEDICAL UNIVERSITY, priority 2021, published 2024)
